# Measured values taken from patent US8034314B2, “Photoreactive compound specifically binding to calcium binding proteins” (priority 2004, dated 2011).
# Assays:
# [1] = target: Lysozyme (Gallus gallus, UniProt P00698); assay: Lysozyme activity; type: biochemical; details: AzRu 100 μM; mean ± SEM
# [2] = system: U-937 human monocytic cell line; assay: STS-induced apoptotic cell death of U-937 cells (acridine orange/ethidium bromide staining); type: cell-based; details: for Reduction of STS-activated apoptotic cell death: AzRu 10 μM added 18 h before STS 1.25 μM
# Method: The U-937 human monocytic cell line was grown under an atmosphere of 95% air and 5% CO2 in RPMI 1640 supplemented with 10% fetal calf serum (FCS), 1 mM L-glutamine, 100 U/ml penicillin, and 100 μg/ml streptomycin. Cells were plated at a density of 5.4×10^4 cells/cm^2 in 24-well plates and then incubated with or without AzRu for 18 hr before exposure to 1.25 μM staurosporine (STS) to induce apoptosis. Cell viability was analyzed 5 and 7 hrs after STS addition by staining with 100 μg/ml acridine orange (AcOr) and 100 μg/ml ethidium bromide (EtBr) in PBS. The cells were then visualized by fluorescence microscopy (Olympus IX51) and images were recorded on an Olympus DP70 camera, using an SWB filter.
# AzRu had no effect on the viability of the cells that were not exposed to STS. In FIG. 13 A, U-937 cells were incubated without (a, c) or with AzRu (10 μM) (b,d) for 18 hrs and thereafter were exposed to STS (1.25 μM) (c and d). After five hours the cells were stained with acridine orange and ethidium bromide. Arrows indicate cells in early apoptotic state, represented as degraded nucleus, but with intact cell membrane (stained by acridine orange). Arrowheads indicate a late apoptotic state, as shown by the presence of a degraded nucleus (stained by both acridine orange and ethidium bromide). Scale bar, 20 μm. In FIG. 13 B, quantitative analysis of apoptotic cell death in control cells and cells exposed to AzRu was assessed 5 and 7 hr after their exposure to STS (1.25 by ANOVA and t-test. P<0.001 was considered statistically significant (***). Data are the means±SEM, n=3. In each independent experiment, approximately 200 cells were counted for each treatment.
# [3] = system: Mg2+-dependent proteins and the Zn2+-sensitive KCNK0 channel; assay: Activities of Mg2+-dependent proteins and Zn2+-sensitive KCNK0 channel (summary of Table 1); type: biochemical; details: at 100 μM
# [4] = target: T1, Luciferase (Photinus pyralis, UniProt P08659); assay: Luciferase activity; type: biochemical; details: mean ± SEM
# T1 construct: purchased Sigma
# Text: (§1) Unlabelled ryanodine was obtained from Calbiochem. […] Ruthenium chloride was purchased from Aldrich.
# [5] = system: Lactate dehydrogenase; assay: Lactate dehydrogenase activity; type: biochemical; details: AzRu 100 μM; mean ± SEM
# Text: as §1
# [6] = target: T2, Catalase (Bos taurus, UniProt P00432); assay: Catalase activity; type: biochemical, bovine; details: AzRu 100 μM; mean ± SEM
# T2 construct: bovine liver catalase; purchased Sigma; host or cells: bovine liver
# Text: as §1
# [7] = target: T3, Choline oxidase (Arthrobacter globiformis, UniProt Q7X2H8); assay: Choline oxidase activity; type: biochemical; details: AzRu 100 μM; mean ± SEM
# T3 construct: purchased Sigma
# Text: as §1
# [8] = system: Yeast hexokinase; assay: Yeast hexokinase activity; type: biochemical; details: mean ± SEM
# Text: as §1
# [9] = system: Ca2+-dependent mitochondrial swelling (PTP opening); assay: Ca2+-dependent mitochondrial swelling (PTP opening); type: biochemical, rat; details: AzRu 20 μM; PTP opening was completely inhibited at this concentration
# Method: (§2) Sarcoplasmic reticulum (SR) membranes were prepared from rabbit fast twitch skeletal muscle as described by Saito [Saito et al.: J. Cell Biol. 99 (1984) 875-85]. Mitochondria were isolated from rat liver as described by us previously [Gincel D. et al.: Biochem J. 358 (2001) 147-55]. VDAC was purified by a method developed in our laboratory, using columns of hydroxyapatite and reactive red agarose [Gincel D. et al.: J. Bioenerget. Biomembr. 32 (2000) 571-83].
# [10] = system: glucose 6-phosphate dehydrogenase; assay: G-6-P dehydrogenase activity; type: biochemical; details: AzRu 100 μM; mean ± SEM
# Text: as §1
# [11] = target: T4, Peroxidase (Armoracia rusticana, UniProt P00433); assay: Peroxidase activity; type: biochemical, horseradish; details: AzRu 20 μM; mean ± SEM
# T4 construct: purchased Sigma
# Text: as §1
# [12] = system: (Na+/K+)ATPase; assay: (Na+/K+)ATPase activity; type: biochemical; details: mean ± SEM
# [13] = target: T5, ryanodine receptor (RyR) / Ca2+-release channel (Oryctolagus cuniculus, UniProt P11716); assay: [3H]ryanodine binding to SR membranes; design: species or system rabbit
# T5 construct: from tissue; host or cells: rabbit fast twitch skeletal muscle SR membranes
# Method: as §2
# For the determination of [^3H]ryanodine binding, SR membranes were incubated for 20-60 min at 37° C. in a standard binding solution containing 1M NaCl, 20 mM MOPS (pH 7.4), 50 μM free Ca^2+ and 20 nM [^3H]ryanodine. Unbound ryanodine was separated from protein-bound ryanodine by vacuum filtration of the sample through nitrocellulose filters (0.45 μm), followed by two washes with 4 ml ice-cold buffer containing 0.2 M NaCl, 10 mM MOPS (pH 7.4) and 50 μM CaCl2. The retained radioactivity in the dried filters was determined by liquid scintillation counting. Specific binding of [^3H]ryanodine was defined as the difference between the binding in the presence of 20 nM [^3H]ryanodine and in the presence of 20 μM unlabeled ryanodine.
# (§3) The hexavalent RuR and the trivalent Ru360 have been employed in various studies as inhibitors of Ca^2+-dependent reactions. As shown here, even with no photoactivation, AzRu, in contrast to RuR and Ru360, was effective in inhibiting the SR Ca^2+-pump (Table 3). […] This may open the way to inhibit other Ca^2+-dependent activities that are not sensitive to RuR, such as the plasma membrane Ca^2+-ATPase. […] RuR was employed to improve mitochondrial production in ischemic reperfused pig myocardium, was employed in the nervous system to follow neuronal death progress and can act as an anti-oxidant in certain conditions. Considering the potent activity of AzRu in RuR-insensitive reactions (see Table 3), its applications in various biological studies should be explored. Ca^2+ accumulation in SR and mitochondria was assayed as described above in the absence and presence of different concentrations of RuR (0.05-100 μM), Ru360 (0.01-100 μM) or AzRu (0.1-100 μM). The concentration required for 50% inhibition (IC50) was derived from the plot of Ca^2+ accumulation activity or ryanodine binding as a function of the reagent concentration. The results are the mean±SEM of 3 to 5 experiments (Table 3).
# [14] = system: mitochondrial uniporter (Ca2+ uptake in mitochondria); assay: Ca2+ uptake/accumulation in isolated mitochondria; type: biochemical, rat; details: AzRu 20 μM; mean ± SEM
# Method: as §2
# Ca^2+-accumulation in freshly prepared mitochondria (0.5 mg/ml) was assayed for 1 to 20 minutes at 30° C. in the presence of 225 mM mannitol, 75 mM sucrose, 120 μM CaCl2 (containing 3×10^4 cpm/nmol ^45Ca^2+), 5 mM HEPES/KOH pH 7.0, and 5 mM succinate with 0.1 mM Pi, or 4 mM MgCl2 with 3 mM ATP. The Ca^2+-uptake was terminated by rapid Millipore filtration, followed by a wash with 5 ml of 0.15 M KCl. The Ca^2+-accumulation in SR was determined as described previously [Shoshan-Barmatz V. & Shaineberg A.: Biochim. Biophys. Acta 1065 (1991) 82-8]. Electron transport from succinate to cytochrome c was described in above cited article [Gincel D. et al.: J. Bioenerget. Biomembr. 32 (2000) 571-83].
# The effect of AzRu on mitochondrial process of electron transport from the donor succinate to the acceptor cytochrome c was characterized as described above. Although said electron transfer involves several dozens electron transfer carriers, this reaction was not affected by azido-ruthenium of this invention.
# as §3
# T5 sequence (P11716 whole entry): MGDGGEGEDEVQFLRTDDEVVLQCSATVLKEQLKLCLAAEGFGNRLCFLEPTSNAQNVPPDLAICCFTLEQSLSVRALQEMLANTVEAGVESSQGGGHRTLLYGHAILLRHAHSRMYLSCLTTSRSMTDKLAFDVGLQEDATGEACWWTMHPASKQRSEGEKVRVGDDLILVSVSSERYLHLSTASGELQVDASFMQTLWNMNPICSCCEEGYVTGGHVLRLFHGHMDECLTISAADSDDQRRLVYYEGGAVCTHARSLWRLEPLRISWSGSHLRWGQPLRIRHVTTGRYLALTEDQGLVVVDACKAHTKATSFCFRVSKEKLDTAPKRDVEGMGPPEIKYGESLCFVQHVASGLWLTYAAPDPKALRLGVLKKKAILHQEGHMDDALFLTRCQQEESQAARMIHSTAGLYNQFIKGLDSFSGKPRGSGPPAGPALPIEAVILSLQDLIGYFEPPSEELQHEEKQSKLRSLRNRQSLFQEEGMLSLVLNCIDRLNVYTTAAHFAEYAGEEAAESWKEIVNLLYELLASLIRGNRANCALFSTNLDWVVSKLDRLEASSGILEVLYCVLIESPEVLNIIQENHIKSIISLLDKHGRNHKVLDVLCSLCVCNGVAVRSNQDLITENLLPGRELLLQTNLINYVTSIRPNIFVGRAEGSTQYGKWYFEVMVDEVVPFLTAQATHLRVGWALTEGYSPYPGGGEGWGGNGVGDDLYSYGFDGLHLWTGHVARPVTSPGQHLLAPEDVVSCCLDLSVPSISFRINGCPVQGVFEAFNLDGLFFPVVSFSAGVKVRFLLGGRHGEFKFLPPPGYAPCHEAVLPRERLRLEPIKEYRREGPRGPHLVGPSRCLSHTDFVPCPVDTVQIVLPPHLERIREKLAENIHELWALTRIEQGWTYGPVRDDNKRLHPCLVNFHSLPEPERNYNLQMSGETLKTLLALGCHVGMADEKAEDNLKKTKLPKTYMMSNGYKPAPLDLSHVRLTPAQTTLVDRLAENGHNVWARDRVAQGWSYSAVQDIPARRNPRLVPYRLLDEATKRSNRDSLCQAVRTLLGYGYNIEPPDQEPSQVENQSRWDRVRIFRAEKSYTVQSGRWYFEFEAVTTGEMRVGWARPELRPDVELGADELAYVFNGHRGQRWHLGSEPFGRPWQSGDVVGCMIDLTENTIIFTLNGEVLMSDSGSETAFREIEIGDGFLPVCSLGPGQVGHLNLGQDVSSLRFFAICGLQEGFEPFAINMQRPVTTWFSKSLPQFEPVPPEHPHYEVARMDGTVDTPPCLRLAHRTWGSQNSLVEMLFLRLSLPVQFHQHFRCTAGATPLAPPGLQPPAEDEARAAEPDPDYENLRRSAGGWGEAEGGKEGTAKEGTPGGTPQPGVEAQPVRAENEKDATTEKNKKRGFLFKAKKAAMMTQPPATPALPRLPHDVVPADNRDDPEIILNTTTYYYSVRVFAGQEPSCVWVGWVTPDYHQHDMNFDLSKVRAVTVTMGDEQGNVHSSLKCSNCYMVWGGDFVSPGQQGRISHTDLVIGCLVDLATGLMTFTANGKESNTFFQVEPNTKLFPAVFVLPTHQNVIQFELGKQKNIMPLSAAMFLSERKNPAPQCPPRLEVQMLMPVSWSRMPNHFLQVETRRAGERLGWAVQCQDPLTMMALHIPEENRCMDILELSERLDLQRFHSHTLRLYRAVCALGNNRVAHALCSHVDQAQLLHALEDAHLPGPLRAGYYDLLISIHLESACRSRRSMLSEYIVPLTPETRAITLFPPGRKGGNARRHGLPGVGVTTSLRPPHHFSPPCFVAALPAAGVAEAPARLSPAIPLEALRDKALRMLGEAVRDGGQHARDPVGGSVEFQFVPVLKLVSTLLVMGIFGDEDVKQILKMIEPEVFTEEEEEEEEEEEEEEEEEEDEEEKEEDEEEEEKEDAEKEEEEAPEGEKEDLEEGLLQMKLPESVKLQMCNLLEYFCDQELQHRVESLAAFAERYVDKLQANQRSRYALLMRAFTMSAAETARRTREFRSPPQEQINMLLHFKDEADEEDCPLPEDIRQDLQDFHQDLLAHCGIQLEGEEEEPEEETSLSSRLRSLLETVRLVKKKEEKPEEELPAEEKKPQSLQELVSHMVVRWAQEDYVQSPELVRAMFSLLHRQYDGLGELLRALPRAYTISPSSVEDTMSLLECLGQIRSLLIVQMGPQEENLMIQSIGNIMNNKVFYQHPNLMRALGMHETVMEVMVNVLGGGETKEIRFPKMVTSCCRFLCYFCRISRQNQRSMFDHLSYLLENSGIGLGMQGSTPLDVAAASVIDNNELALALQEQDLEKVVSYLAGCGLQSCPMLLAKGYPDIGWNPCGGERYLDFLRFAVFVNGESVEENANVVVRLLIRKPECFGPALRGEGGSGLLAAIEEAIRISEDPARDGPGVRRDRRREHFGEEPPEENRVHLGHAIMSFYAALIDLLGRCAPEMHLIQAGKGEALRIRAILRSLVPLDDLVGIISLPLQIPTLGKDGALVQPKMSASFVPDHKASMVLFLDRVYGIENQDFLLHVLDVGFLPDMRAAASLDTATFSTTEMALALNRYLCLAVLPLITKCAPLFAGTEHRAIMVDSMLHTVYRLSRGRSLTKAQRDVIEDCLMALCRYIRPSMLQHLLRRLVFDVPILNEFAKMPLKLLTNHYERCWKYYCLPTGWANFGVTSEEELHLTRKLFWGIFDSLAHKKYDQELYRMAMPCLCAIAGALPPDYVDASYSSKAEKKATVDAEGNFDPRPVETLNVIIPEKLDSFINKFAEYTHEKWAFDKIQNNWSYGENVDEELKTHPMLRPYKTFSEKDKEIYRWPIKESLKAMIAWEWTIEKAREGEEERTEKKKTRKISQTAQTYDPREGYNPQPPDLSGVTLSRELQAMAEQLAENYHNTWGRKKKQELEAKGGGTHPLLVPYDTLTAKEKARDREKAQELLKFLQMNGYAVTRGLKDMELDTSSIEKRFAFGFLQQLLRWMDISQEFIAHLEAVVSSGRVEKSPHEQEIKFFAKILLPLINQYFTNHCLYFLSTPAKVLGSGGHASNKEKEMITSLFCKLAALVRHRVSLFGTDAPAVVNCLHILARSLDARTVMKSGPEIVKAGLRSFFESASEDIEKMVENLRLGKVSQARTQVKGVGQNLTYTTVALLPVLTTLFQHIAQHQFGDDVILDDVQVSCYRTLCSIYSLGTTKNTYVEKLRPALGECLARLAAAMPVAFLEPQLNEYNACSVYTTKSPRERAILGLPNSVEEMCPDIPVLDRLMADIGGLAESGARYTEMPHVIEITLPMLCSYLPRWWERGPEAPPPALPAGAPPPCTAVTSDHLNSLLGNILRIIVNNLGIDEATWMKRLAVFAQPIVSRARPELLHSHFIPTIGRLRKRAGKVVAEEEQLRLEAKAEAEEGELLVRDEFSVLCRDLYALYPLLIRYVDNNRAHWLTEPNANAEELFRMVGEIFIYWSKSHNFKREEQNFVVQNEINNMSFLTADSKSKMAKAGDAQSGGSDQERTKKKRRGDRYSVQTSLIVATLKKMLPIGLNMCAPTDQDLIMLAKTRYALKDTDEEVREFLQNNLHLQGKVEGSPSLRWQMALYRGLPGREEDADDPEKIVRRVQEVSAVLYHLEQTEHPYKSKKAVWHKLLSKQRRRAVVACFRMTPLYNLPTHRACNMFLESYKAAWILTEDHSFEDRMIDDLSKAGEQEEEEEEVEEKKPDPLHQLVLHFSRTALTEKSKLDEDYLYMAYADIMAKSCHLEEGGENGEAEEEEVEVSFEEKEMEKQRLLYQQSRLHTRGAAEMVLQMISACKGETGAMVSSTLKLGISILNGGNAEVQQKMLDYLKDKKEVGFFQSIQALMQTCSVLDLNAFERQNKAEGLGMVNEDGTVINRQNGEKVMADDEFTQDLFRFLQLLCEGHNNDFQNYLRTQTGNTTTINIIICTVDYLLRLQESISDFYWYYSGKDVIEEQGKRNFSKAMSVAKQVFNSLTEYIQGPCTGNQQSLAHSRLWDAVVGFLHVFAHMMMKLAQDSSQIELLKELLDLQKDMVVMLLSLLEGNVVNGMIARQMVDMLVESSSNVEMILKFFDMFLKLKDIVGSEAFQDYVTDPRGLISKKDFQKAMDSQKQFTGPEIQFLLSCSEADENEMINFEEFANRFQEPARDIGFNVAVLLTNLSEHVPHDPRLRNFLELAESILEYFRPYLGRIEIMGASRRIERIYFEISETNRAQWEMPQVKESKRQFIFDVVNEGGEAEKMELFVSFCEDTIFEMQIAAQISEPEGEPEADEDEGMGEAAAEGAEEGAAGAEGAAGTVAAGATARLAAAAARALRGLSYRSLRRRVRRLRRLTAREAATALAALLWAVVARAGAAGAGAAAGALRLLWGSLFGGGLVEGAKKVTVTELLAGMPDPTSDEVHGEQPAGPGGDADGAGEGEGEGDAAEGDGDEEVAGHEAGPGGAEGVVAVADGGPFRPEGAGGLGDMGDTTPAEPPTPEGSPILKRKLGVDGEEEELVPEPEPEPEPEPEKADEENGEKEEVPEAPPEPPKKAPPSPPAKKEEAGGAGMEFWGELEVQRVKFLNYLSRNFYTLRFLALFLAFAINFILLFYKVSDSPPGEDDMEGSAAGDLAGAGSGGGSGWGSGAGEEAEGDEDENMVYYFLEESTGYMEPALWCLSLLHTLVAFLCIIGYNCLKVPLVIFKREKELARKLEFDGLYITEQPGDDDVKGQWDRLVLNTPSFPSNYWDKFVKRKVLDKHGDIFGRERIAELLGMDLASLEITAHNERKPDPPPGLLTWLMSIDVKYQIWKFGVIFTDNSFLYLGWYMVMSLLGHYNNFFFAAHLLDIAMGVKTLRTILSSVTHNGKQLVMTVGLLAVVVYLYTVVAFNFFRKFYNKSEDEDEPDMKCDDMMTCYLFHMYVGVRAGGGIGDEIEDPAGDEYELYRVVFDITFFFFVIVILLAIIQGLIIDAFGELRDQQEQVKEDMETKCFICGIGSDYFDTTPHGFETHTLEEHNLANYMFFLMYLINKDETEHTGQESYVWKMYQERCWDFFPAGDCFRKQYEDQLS
# Chain of Lysozyme (P00698 19-147): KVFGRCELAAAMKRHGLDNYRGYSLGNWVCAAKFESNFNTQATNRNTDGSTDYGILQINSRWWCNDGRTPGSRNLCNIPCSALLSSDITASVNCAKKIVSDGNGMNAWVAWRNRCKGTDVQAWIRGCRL
substance,measurement,setting,value
azido-ruthenium [AzRu],"Activity (% of control), Lysozyme",[1],101 ± 3 % of control
same,Reduction of STS-activated apoptotic cell death,[2]; 5 h of exposure to STS,about 75%
same,Reduction of STS-activated apoptotic cell death,[2]; 7 h of exposure to STS,~47%
same,Effect on viability of cells not exposed to STS,"[2]; U-937 cells, no STS",no effect
same,Inhibition of activities of Mg2+-dependent proteins and Zn2+-sensitive KCNK0 channel,[3],~30%
same,"Activity (% of control), Luciferase",[4]; AzRu 20 μM,97 ± 1 % of control
same,"Activity (% of control), Luciferase",[4]; AzRu 100 μM,67 ± 3 % of control
same,"Activity (% of control), Lactate dehydrogenase",[5],91 ± 4 % of control
same,"Activity (% of control), Catalase",[6],118 ± 8 % of control
same,"Activity (% of control), Choline oxidase",[7],85 ± 3 % of control
same,"Activity (% of control), Yeast hexokinase",[8]; AzRu 20 μM,77 ± 5 % of control
same,"Activity (% of control), Yeast hexokinase",[8]; AzRu 100 μM,64 ± 4 % of control
same,"Activity (% of control), Ca2+-dependent mitochondrial swelling",[9],0 % of control
same,"Activity (% of control), G-6-P dehydrogenase",[10],101 ± 7 % of control
same,"Activity (% of control), Peroxidase",[11],39 ± 4 % of control
same,"Activity (% of control), (Na+/K+)ATPase",[12]; AzRu 20 μM,92 ± 5 % of control
same,"Activity (% of control), (Na+/K+)ATPase",[12]; AzRu 100 μM,71 ± 4 % of control
same,IC50,"[13]; +UV (photoactivation), mean ± SEM",1210 ± 60 nM
same,"Activity (% of control), Ryanodine binding by SR RyR","[13]; AzRu 20 μM, mean ± SEM",18 ± 6 % of control
same,Effect on binding of ryanodine to SR membranes,[13]; FIG. 8,strongly inhibited
same,IC50,"[13]; no UV, mean ± SEM of 3 to 5 experiments",2900 ± 170 nM
same,"Activity (% of control), Ca2+ uptake in mitochondria",[14],11 ± 4 % of control
